Source: patent US8269017B2, “Compounds for the treatment of proliferative disorders” (Synta Pharmaceuticals Corporation, priority 2005, dated 2012)
Entries after “also recorded” stand apart in the source; their conditions may differ. Like-named read-outs stand apart in the source and are kept apart here.

Tests used:
[1] = tested on: MDA-435; test: Cytotoxicity in MDA-435 tumor cells (Cell Counting Kit 8); format: cell-based; settings: Homo sapiens, MDA435, MDA-435 cells, 70 h
Method: Tumor cell line, MDA-435, was seeded in 96-well plates at 1×10^4 cells/well in DMEM medium and treated with compounds at different concentrations. Taxol was used as a positive control. The cells were incubated at 37° C. for 70 h. Viability of the cells was measured with Cell Counting Kit 8 (Dojindo, Cat #CK04). IC50 of the compounds was determined by Five-Parameter Logistic equation.

[2] = tested on: SB cells; test: Induction of apoptosis in SB cells (Annexin V/PI, FACS); format: cell-based; settings: 24 h; for % Apoptotic Cells Gated: 1 μM; for cytotoxicity at 1 µM: read-out: % Dead Cells Gated; for viability at 1 µM: read-out: % Live Cells Gated
Method: SB cells (2×10^5 cells/mL) were cultured in 12-well plates (2 mL/well) and were left untreated (negative control), treated with Taxol (positive control), or treated with a compound of the invention for 24 h at 37° C. After treatment, the cells were washed one time with 1×PBS and stained with FITC labeled anti-Annexin V and PI (10 μg/ml) for 15 min at room temperature. The cells were analyzed by FACSCalibur (Becton Dickinson).

[3] = tested on: MDA-435 cells; test: Cell cycle analysis in MDA-435 cells; format: cell-based, human; settings: 20 h, Taxol 30 nM, Comp. 1 100 nM, Comp. 2 500 nM, Comp. 3 10 nM, Comp. 6 800 mM (so in the source), Comp. 46 50 nM
Method: MDA-435 cells were cultured in 6-well plates at 1×10^6 cells/well and were untreated (negative control), treated with Taxol (positive control), or treated with a compound of the invention at 37° C. for 20 h. The cells were detached with 1× trypsin and washed one time with PBS. Cycle TEST PLUS kit (BD PharMingen, Cat #340242) was used to stain the cells. Cell cycle was analyzed with FACScomp program (BS PharMingen).

[4] = tested on: α-tubulin-YFP labeled microtubules in MCF7-α-tubulin-YFP cells; test: Inhibition of tubulin polymerization in α-tubulin-YFP expressing cells (fluorescence imaging); format: cell-based
Method: Living cells were examined using a fluorescent microscope for α-tubulin-YFP expression.
CHO-α-tubulin-YFP or MCF7-α-tubulin-YFP cells were cultured in 2-well chambered cover-slips (Labtek (Campbell, Calif.) or Fisher Scientific) for 24 hours before treatment with a compound of the invention. For comparison of the effects of treatment on α-tubulin-YFP labeled microtubules with the compounds of the invention, CHO-α-tubulin-YFP or MCF7-α-tubulin-YFP cells were treated with the a compound of the invention, Taxol or equivalent concentrations of DMSO-containing media for various time periods before imaging. Tubulin-YFP fluorescence in living cells or fixed cells was captured using a standard filter for FITC and objectives of 20× or 60× magnification on a Nikon TE300 microscope with a Leica DC50 color digital camera (Leica, Bannockburn, Ill.) or a CoolSnap HQ monochrome CCD camera (Photonetrics, Tucson, Ariz.). The Leica DC50 and CoolSnapHQ cameras were controlled with Leica DC50 software and MetaVue/MetaMorph software, respectively (Universal Imaging Corp, Downingtown, Pa.).

[5] = tested on: HL-60 (T-cell leukemia); test: In vitro cytotoxicity, MTS assay, HL-60; format: cell-based, human; settings: 72 hours
Method: (§1) The in vitro cytotoxicity of the compounds of the invention was determined in the following human cell lines: HL-60 (T-cell leukemia), MDA-435 and MCF-7 (human breast carcinoma), NCI-H460 and H29 (colon carcinoma), DU145 (prostate carcinoma), and MES-SA and MES-SA/DX5 (uterine sarcoma). MES-SA is a model of uterine sarcoma, and the cell are sensitive to a number of chemotherapeutic agents including doxorubicin, dactinomycin, mitomycin C, taxol and bleomycin, but resistant to vinblastine and cisplatin. MES-SA/Dx5 was established in the presence of increasing concentrations of doxorubicin. […] All cells were purchased from ATCC.
(§2) The cell lines were maintained in RPMI1640 (GIBCO) supplemented with 10% FCS, 100 units/mL penicillin, 100 ug/ml streptomycin, and 2 mM L-glutamine. Cells were split every third day and diluted to a concentration of 2×10^5 cells/mL one day before the experiment was performed. All experiments were performed on exponentially growing cell cultures. Cell densities were 2.5×10^4 cells/mL in all experiments.
(§3) Compounds of the invention were prepared by dissolving the compound at a concentration of 10 mM in 100% DMSO. Final concentrations 10, 1, 0.1, 0.01 and 0.001 μM were obtained by diluting the stock solution directly into the tissue culture medium.

[6] = tested on: MDA-435 (human breast carcinoma); test: In vitro cytotoxicity, MTS assay, MDA-435; format: cell-based; settings: MDA435, MDA-435 (Breast Cancer), 72 hours
Method: as §1, §2, §3

[7] = tested on: MCF-7 (human breast carcinoma); test: In vitro cytotoxicity, MTS assay, MCF-7; format: cell-based; settings: MCF7, MCF-7 (Breast Cancer), 72 hours
Method: as §1, §2, §3

[8] = tested on: NCI-H460 (colon carcinoma); test: In vitro cytotoxicity, MTS assay, NCI-H460; format: cell-based; settings: Homo sapiens, 72 hours
Method: as §1, §2, §3

[9] = tested on: MES-SA (uterine sarcoma); test: In vitro cytotoxicity, MTS assay, MES-SA; format: cell-based, human; settings: MES-SA (Uterine Carcinoma), 72 hours
Method: as §1, §2, §3

[10] = tested on: MES-SA/DX5 (uterine sarcoma, MDR-1); test: cells; format: cell-based; settings: Homo sapiens, MES/DX5 (MDR-1), MTS assay
Method: as §1, §2, §3

[11] = tested on: DU145 (prostate carcinoma); test: In vitro cytotoxicity, MTS assay, DU145; format: cell-based; settings: Homo sapiens, DU-145, 72 hours
Method: as §1, §2, §3

[12] = tested on: H29 (colon carcinoma); test: In vitro cytotoxicity, MTS assay, H29; format: cell-based; settings: Homo sapiens, 72 hours
Method: as §1, §2, §3

[13] = tested on: human tumor cell line MDA-MB-435S; test: Nude mouse xenograft, MDA-MB-435S (Example 10); format: in vivo
Method: (§4) Seven to eight week old, female Crl:CD-1-nuBR (nude) mice were obtained from Charles River Laboratories (Wilmington, Mass., USA). Animals were housed 4-5/cage in micro-isolators, with a 12 hr/12 hr light/dark cycle, acclimated for at least 1 week prior to use and fed normal laboratory chow ad libitum. Studies were conducted on animals between 8 and 10 weeks of age at implantation. To implant MDA-MB-4355 tumor cells into nude mice, the cells were trypsinized as above, washed in PBS and resusupended at a concentration of 50×10(6) cells/ml in PBS. Using a 27 gauge needle and 1 cc syringe, 0.1 ml of the cell suspension was injected into the corpus adiposum of nude mice. The corpus adiposum is a fat body located in the ventral abdominal vicera in the right quadrant of the abdomen at the juncture of the os coxae (pelvic bone) and the os femoris (femur).
Tumors were then permitted to develop in vivo until the majority reached an average of 100-200 mm^3 in tumor volume, which typically required 2-3 weeks following implantation. […] Tumor volumes (V) were calculated by caliper measurement of the width (W), length (L) and thickness (T) of tumors using the following formula: V=0.5236×(L×W×T). Animals were randomized into treatment groups so that the median tumor volumes of each group were similar at the start of dosing. % T/C values, as a measure of efficacy, were determined as follows: • (i) If ΔT>0: % T/C=[…] • (ii) If ΔT<0: % T/C=(ΔT/T0)×100 • (iii) ΔT=Change in median tumor volume between start of dosing and the end of study. • (iv) ΔC=Change in median tumor volume between start of dosing and the end of study. • (v) T0=Median tumor volume at start of dosing.
(§5) Compounds were formulated in either D5W (Compounds 169 and 174) or DRD (Compound 178). For formulations in D5W, solutions of test articles were prepared by dissolving the appropriate amounts of each compound in 5% dextrose in water (Abbott Laboratories, North Chicago, Ill., USA) by sonication in an ultrasonic water bath. For formulations in DRD, stock solutions of test articles were prepared by dissolving the appropriate amounts of each compound in dimethyl sulfoxide (DMSO) by sonication in an ultrasonic water bath. Stock solutions were prepared weekly, stored at −20° C. and diluted fresh each day for dosing. A solution of 20% Cremophore RH40 (polyoxyl 40 hydrogenated castor oil; BASF Corp., Aktiengesellschaft, Ludwigshafen, Germany) in 5% dextrose in water (Abbott Laboratories, North Chicago, Ill., USA) was also prepared by first heating 100% Cremophore RH40 at 50-60° C. until liquefied and clear, diluting 1:5 with 100% D5W, reheating again until clear and then mixing well. This solution was stored at room temperature for up to 3 months prior to use. […]

[14] = Body weight change in MDA-MB-435S xenograft study (Example 10); format: in vivo, nude mouse; settings: i.v.
Method: as §4
as §5, with “use. To prepare DRD formulations for daily dosing, DMSO stock solutions were diluted 1:10 with 20% Cremophore RH40.” for “use.”

[15] = MCF7-α-tubulin-YFP cells treated with 1.0 μM compound
[16] = Homo sapiens, HL-60, HL60 (Leukemia), read-out: IC50
[17] = Compound 169 at 2 mg/kg, Compound 174 at 4.55 mg/kg body weight, i.v., 1 time/week, 3 doses

Row | Compound | IC50 [1] [nM] | % Apoptotic Cells Gated [2] [%] | cytotoxicity at 1 µM [2] [%] | viability at 1 µM [2] [%] | Apoptotic Population (%) [3] [%] | G0/G1 Phase (%) [3] [%] | G2/M Phase (%) [3] [%] | S Phase (%) [3] [%] | IC50 [5, 16] [nM] | IC50 [6] [nM] | IC50 [7] [nM] | IC50 [8] [nM] | IC50 ([9]; Homo sapiens, read-out: IC50) [nM] | IC50 ([10]; MDR1, 72 h) [nM] | IC50 [11] [nM] | IC50 [12] [nM] | further results
1 | COc1cc(-c2oncc2-c2ccc(Br)cc2)cc(OC)c1OC [Compound 1, 4-(4-Bromo-phenyl)-5-(3,4,5-trimethoxy-phenyl)-isoxazole] | 132 | 18.36 | 14.4 | 60.1 | 11.35 | 19.15 | 32.60 | 37.60 | – | – | – | – | – | – | – | – | Tubulin-YFP signal pattern in live cells [4, 15]: cytoplasmic pattern
2 | CCc1cc(-c2oncc2-c2ccc(I)cc2)c(O)cc1OC [Compound 4, 4-(4-Iodo-phenyl)-5-(2-hydroxy-4-methoxy-5-ethyl-phenyl)-isoxazole] | 232 | 19.05 | 20.1 | 52.8 | – | – | – | – | 50 | 50 | 50 | 50 | 50 | 50 | 50 | 50 | –
3 | CCc1cc(-c2oncc2-c2ccc(Br)cc2)c(O)cc1OC [Compound 6, 4-(4-Bromo-phenyl)-5-(2-hydroxy-4-methoxy-5-ethyl-phenyl)-isoxazole] | 461 | 14.17 | 17.3 | 59.2 | 10.59 | 18.45 | 35.96 | 35.55 | – | – | – | – | – | – | – | – | Tubulin-YFP signal pattern in live cells [4, 15]: cytoplasmic pattern
4 | COc1cc(-c2oncc2-c2ccc3c(c2)OCCO3)cc(OC)c1OC [Compound 46, 4-(2,3-Dihydro-benzo[1,4]dioxin-6-yl)-5-(3,4,5-trimethoxy-phenyl)-isoxazole] | 21 | 19.04 | 17.3 | 51 | 9.88 | 19.67 | 28.18 | 37.98 | 50 | 50 | 50 | 50 | 50 | 50 | 100 | 50 | –
5 | COc1ccc(-c2cnoc2-c2cc(OC)c(OC)c(OC)c2)cc1NC(=O)CN.Cl [Compound 169, 2-Amino-N-{2-methoxy-5-[5-(3,4,5-trimethoxy-phenyl)-isoxazol-4-yl]-phenyl}-acetamide] | – | – | – | – | – | – | – | – | 7 | – | – | – | 3 | 3 | – | – | % T/C [13, 17]: 38%; in vivo growth rate of MDA-MB-435S tumors [13, 17]: substantially inhibited tumor growth; also recorded: substantially decreased the growth rate; overt toxicity (effect on body weights) ([14]; Compound 169 at 2 and 1 mg/kg, Compound 174 at 4.55 and 2.28 mg/kg body weight, 1 time per week, 3 doses): not overtly toxic; also recorded: not associated with overt toxicity
6 | COc1ccc(-c2cnoc2-c2cc(OC)c(OC)c(OC)c2)cc1OP(=O)(O)O [Compound 178, Sodium 2-methoxy-5-[5-(3,4,5-trimethoxy-phenyl)-isoxazol-4-yl)-phenyl phosphate] | – | – | – | – | – | – | – | – | – | – | – | – | – | – | – | – | IC50 ([5]; HL60 (Leukemia), phosphate): 22 nM; IC50 ([9]; phosphate): 4 nM; efficacy on in vivo growth of MDA-MB-435S tumors ([13]; i.v. 3 times per week, dose escalation: 3 doses at 25, 3 at 37.5, 3 at 50 mg/kg, efficacy at 37.5 and 50 mg/kg, phosphate): began to show moderate efficacy; also recorded: began to show modest efficacy; overt toxicity (effect on body weights) ([14]; Compound 178 at 25, 37.5 or 50 mg/kg body weight, 3 times per week, phosphate): not overtly toxic; also recorded: not associated with overt toxicity
7 | CC(=O)O[C@H]1C(=O)[C@@]2(C)[C@H]([C@H](OC(=O)c3ccccc3)[C@]3(O)C[C@H](OC(=O)[C@H](O)[C@@H](NC(=O)c4ccccc4)c4ccccc4)C(C)=C1C3(C)C)[C@]1(OC(C)=O)CO[C@@H]1C[C@@H]2O [Taxol, reference compound] | 16 | 17.84 | 12.5 | 63.7 | 16.17 | 19.12 | 32.32 | 32.93 | 5 | 2 | 5 | 5 | 5 | – | 5 | 10 | IC50 ([10]; MDR1, 72 hours, read-out: IC50): 10000 nM; Tubulin-YFP signal pattern in live cells ([4]; MCF7-α-tubulin-YFP cells treated with 0.1 μM Taxol): microtubule bundle formation
